Data on 2 compounds can be found in publication PMC4619705 (PLoS ONE, 2015).

Common to all, as to format: cell-based
For one assay, the target named is T1, α2β3 GABAARs (Homo sapiens, UniProt P28472+P47869).
T1 construct: expressed in transfected cells; host or cells: Xenopus laevis oocytes injected with capped mRNA, α2:β3 20:1
T1 sequence (P47869 29-451): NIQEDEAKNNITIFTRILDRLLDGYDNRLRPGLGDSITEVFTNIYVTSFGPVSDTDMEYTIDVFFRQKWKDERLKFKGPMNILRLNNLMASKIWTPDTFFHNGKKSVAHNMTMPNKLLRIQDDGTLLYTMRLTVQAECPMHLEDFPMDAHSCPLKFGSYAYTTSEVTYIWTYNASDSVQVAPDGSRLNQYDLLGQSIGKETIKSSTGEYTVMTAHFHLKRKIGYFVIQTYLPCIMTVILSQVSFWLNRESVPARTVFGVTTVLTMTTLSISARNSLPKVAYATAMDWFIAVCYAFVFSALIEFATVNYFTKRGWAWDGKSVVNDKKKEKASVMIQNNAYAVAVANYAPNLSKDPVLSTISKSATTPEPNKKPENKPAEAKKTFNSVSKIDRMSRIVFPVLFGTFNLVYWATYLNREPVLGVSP
T1 sequence (P28472 26-473): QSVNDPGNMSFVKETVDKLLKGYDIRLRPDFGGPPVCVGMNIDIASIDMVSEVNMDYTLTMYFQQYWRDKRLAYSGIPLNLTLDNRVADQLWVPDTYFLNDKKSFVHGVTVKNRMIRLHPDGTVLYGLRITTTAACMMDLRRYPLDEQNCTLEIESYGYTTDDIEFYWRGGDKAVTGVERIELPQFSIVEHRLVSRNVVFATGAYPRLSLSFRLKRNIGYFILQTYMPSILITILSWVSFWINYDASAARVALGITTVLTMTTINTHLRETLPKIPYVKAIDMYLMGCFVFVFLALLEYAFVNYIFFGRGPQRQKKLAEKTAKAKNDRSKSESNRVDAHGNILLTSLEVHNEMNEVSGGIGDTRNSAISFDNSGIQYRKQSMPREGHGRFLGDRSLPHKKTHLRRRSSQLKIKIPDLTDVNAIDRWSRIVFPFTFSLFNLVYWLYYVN
As to the kind of experiment: Two-electrode voltage clamp of binary α2β3 GABAARs expressed in Xenopus oocytes. An excerpt:
(§1) Human complementary DNA (cDNA) of GABAAR α2 subunit (vector: pCMV6-XL5) was purchased from OriGene Technologies (Rockville, MD, USA), and the human β3 (vector: pGEMHE) and γ2L (vector: pCDM8) subunits were generous gifts from Dr. Bjarke Ebert (H. Lundbeck A/S, Valby, Denmark) and Dr. Paul Whiting (Merck, Sharp and Dohme Research Laboratories, Harlow, Essex, UK) respectively. […] Plasmid vectors with the cDNA incorporated were linearised using appropriate restriction endonucleases (α2: SmaI; β3: NheI; γ2L: NotI). Capped RNA transcripts were synthesised from linearised plasmids using the mMessage mMachine T7 transcript kit from Ambion (Austin, TX, USA). Purified messenger RNA (mRNA) was dissolved in nuclease-free water (Ambion, Austin, TX, USA), and its quality was assessed using 1% agarose gel electrophoresis. The concentration of each subunit mRNA was measured using Nanodrop ND-100 UV-Vis spectrophotometer (Thermo Fisher Scientific, North Ryde, NSW, Australia).
(§2) Various combinations of α2, β3 and γ2L subunit mRNAs were mixed to different ratios as stated in the text, and diluted accordingly to a concentration of 5 ng/μL (unless otherwise stated). […] Injected oocytes were stored in ND96 storage solution supplemented with 50 μg/mL gentamycin and tetracycline at 18°C. Two-electrode voltage clamp recordings were performed on oocytes 2–4 days post-injection at room temperature (20–25°C) using a GeneClamp 500B amplifier (ADInstruments, Sydney, NSW, Australia) or a Warner OC-725C Oocyte Clamp (Warner Instrument Corp, Hamden, CT, USA). All experiments were conducted at a holding potential of –60 mV, and data were acquired with a PowerLab 2/25, and LabChart (version 5.0.2) software (ADInstruments, Sydney, NSW, Australia). The recording microelectrodes (0.2–1.1 MΩ) were generated from capillary glass (Harvard Apparatus, Holliston, MA, USA) using a single-stage glass microelectrode puller (Narishige, Tokyo, Japan), and were filled with 3 M KCl solution. The perfusion system was built using a series of polycarbonate, high-density polyethylene two-way stopcocks (Qosina, Edgewood, NY, USA), connected through tubing to the recording chamber (100 μL), where the oocyte was continuously perfused with ND96 recording solution (96 mM NaCl, 2 mM KCl, 1 mM MgCl2, 1.8 mM CaCl2, 5 mM HEPES hemisodium; pH 7.4) at an approximate rate of 5 mL/min.
(§3) Perfusates containing these chemicals were made up fresh before each application. The concentration-response curves of agonists were obtained by exposing oocytes to increasing concentrations of agonists until the currents peaked. […] All experiments were performed using at least two different batches of oocytes.
Prism (version 5.04; GraphPad Software, La Jolla, CA, USA) was used for data analysis.
In all cases, we constrained the bottom to 0, and when fitting data to the biphasic model, the Hill slopes were constrained to 1. Statistical comparisons of results for different injection ratios of β3γ2L receptors were performed using ANOVA with Tukey’s post-hoc test. When comparing results from different injection ratios of β3γ2L receptors with α2β3γ2L receptors, the ANOVA Dunnett’s test was used. Pairwise comparisons were performed using Student’s t test. Statistical significance was attained at p < 0.05.
On the technique in general: Two-electrode voltage clamp holds a large cell at a set potential and records current.

The next assay deals with T2, homomeric α2 GABAARs (Homo sapiens, UniProt P47869).
T2 construct: expressed in transfected cells; host or cells: Xenopus laevis oocytes injected with α2 mRNA alone (28–35 ng/oocyte)
T2 sequence (P47869 29-451): T1 sequence (P47869 29-451)
As to the kind of experiment: Two-electrode voltage clamp of oocytes injected with α2 mRNA alone.
Description: as §1
Various combinations of α2, β3 and γ2L subunit mRNAs were mixed to different ratios as stated in the text, and diluted accordingly to a concentration of 5 ng/μL (unless otherwise stated). […] Injected oocytes were stored in ND96 storage solution supplemented with 50 μg/mL gentamycin and tetracycline at 18°C. […]

In another assay the target is T3, β3 homomeric receptors (Homo sapiens, UniProt P28472).
T3 construct: expressed in transfected cells; host or cells: Xenopus laevis oocytes injected with β3 mRNA (5 ng/oocyte)
T3 sequence (P28472 26-473): T1 sequence (P28472 26-473)
As to the kind of experiment: Two-electrode voltage clamp of β3 homomeric receptors expressed in Xenopus oocytes.
Description: as §1, §2, §3
Prism (version 5.04; GraphPad Software, La Jolla, CA, USA) was used for data analysis. […]

The target in the next assay is T4, γ2L homomeric receptors (Homo sapiens, UniProt P18507).
T4 construct: expressed in transfected cells; host or cells: Xenopus laevis oocytes injected with γ2L mRNA alone (high amounts)
As to the kind of experiment: Two-electrode voltage clamp of γ2L homomeric receptors expressed in Xenopus oocytes. As to conditions: γ2L alone.
Description: as §1, §2, §3

SMILES strings stand for the structures. “Also recorded” adds a separate entry of the source.

T4 sequence (P18507 40-475): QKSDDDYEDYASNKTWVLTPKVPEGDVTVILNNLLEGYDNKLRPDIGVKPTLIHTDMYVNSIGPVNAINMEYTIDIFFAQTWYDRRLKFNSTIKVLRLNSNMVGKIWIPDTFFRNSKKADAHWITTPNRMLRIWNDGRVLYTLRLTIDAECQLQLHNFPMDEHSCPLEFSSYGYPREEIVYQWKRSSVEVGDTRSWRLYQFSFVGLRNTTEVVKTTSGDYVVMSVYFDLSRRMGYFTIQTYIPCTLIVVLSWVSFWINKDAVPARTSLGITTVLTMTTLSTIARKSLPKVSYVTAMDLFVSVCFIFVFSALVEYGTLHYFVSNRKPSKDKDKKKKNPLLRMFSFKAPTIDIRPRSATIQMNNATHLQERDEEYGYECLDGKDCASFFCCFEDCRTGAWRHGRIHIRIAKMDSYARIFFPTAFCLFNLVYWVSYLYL

As to `NCCCC(=O)O` [GABA, γ-aminobutyric acid], the “Expression level (current response elicited by GABA)” value on α2β3 GABAARs (α2β3 20:1, 5 ng mRNA, 3 mM GABA, -60 mV) is given as 1100 ± 220 nA; at homomeric α2 GABAARs (28–35 ng mRNA/oocyte, 60 mM GABA, -60 mV), “did not detect function; also recorded: No current”; on β3 homomeric receptors (β3 alone, 5 ng mRNA/oocyte, 60 mM GABA, -60 mV), 290 ± 67 nA; at γ2L homomeric receptors (20–35 ng mRNA/oocyte, 60 mM GABA, -60 mV), “not sensitive; also recorded: not responsive; also recorded: No current”.

Consider `COc1ccccc1-c1cc(=O)c2cc(C)ccc2o1` [2’MeO6MF, 2’-methoxy-6-methylflavone], for which the “2’MeO6MF activity” value on α2β3 GABAARs (α2β3 20:1, 100 μM) is reported as “lack of activity; also recorded: Insignificant activation”; at homomeric α2 GABAARs (100 μM), “did not detect function; also recorded: No current”; on β3 homomeric receptors (β3 alone, 3–300 μM) it was “Inverse agonism”; at γ2L homomeric receptors (100 μM), “not sensitive; also recorded: not responsive; also recorded: No current”. Also, the “Elicited current, % of the 3 mM GABA responses” value on α2β3 GABAARs (α2β3 20:1, 100 μM ligand) is given as 1.7 ± 0.35%. Moreover, the “Enhancement of GABA current (co-application)” value at α2β3 GABAARs (α2β3 20:1, GABA EC3–10 + 100 or 300 μM ligand, data not shown) is listed as “No enhancement”. At β3 homomeric receptors (β3 homomers, 300 μM ligand), the “Maximal inhibition of constitutive activity (normalised against oocyte holding current)” value was 54 ± 3.0%.
